Like-named read-outs stand apart in the source and are kept apart here.

Results on 1 compound are retold here after PMC4434572, “Identification of novel drugs to target dormant micrometastases” (BMC Cancer, 2015).

Assay [1] relates to protein tyrosine phosphatase (PTP). More on the design: method as in PMID 9575179. The following applies: cited from earlier work.
For assay [2], the system named is cancer cells on SISgel or plastic. The assay can be described thus: Activity of leads and analogs on cancer cells grown on plastic vs SISgel (cell line not stated). Format: cell-based. The protocol: The NCI library is no longer available in the form used here, but how it was constructed is described (http://dtp.nci.nih.gov/branches/dscb/diversity_explanation.html). The ChemBridge library is a subset (Set Code NM1024) of the full 50,000 compound library (http://www.chembridge.com/screening_libraries/diversity_libraries/). Compounds were diluted to 100 μM before use. SISgel was prepared as described previously from powdered porcine small intestine submucosa obtained from Cook Biotech (W. Lafayette, IN). It is a natural product that is used extensively in tissue engineering as a bioscaffold. J82 bladder cancer cells and other cell lines were obtained from the ATCC (Bethesda, MD). […] Efficacy in vitro was assessed by plating 30,000 cells in 50 μL of high glucose DMEM with penicillin-streptomycin and 10 % fetal calf serum on SISgel in a 96-well plate containing 50 μL of gelled SISgel per well. Cells were allowed to attach and assume the SISgel phenotype for 48 h. A matching plate without SISgel was prepared 24 h later by pipetting 3,000 cells in 100 μL of high glucose DMEM with penicillin-streptomycin and 10 % fetal calf serum into each well of 96 well plate. The cells were allowed to attach and grow for 24 h. […] The cells were exposed to drug in fresh medium for 48 h, at which time the cell number was determined using the CFDA-AM cellular esterase proliferation assay (cat. #C1354, Life Technologies). For screening the results are reported as the ratio of cell count of cells on the plastic surface to the cell count on SISgel. An initial difference of 1.5 fold identified potential hits. All potential hits were confirmed in triplicate. […] Data were analyzed using nonlinear regression to a sigmoid curve with Prism 4 (GraphPad Software, Inc., LaJolla, CA). […]

As a reminder, the IC50 is the concentration that inhibits the measured activity by half. On to `Cc1ccc(C(=O)Nc2ccc(S(=O)(=O)O)c3cc(S(=O)(=O)O)cc(S(=O)(=O)O)c23)cc1NC(=O)c1cccc(NC(=O)Nc2cccc(C(=O)Nc3cc(C(=O)Nc4ccc(S(=O)(=O)O)c5cc(S(=O)(=O)O)cc(S(=O)(=O)O)c45)ccc3C)c2)c1` [Suramin, reference compound], for which the PTP inhibition entry in assay [1] was “potent”. The SR in assay [2] (ratio IC50-p/IC50-S) is reported as 1.4. Further, the IC50 was 226 µM in assay [2] (read-out: IC50-S) and 321 µM in assay [2] (read-out: IC50-p).
